Measured values: US20070197591A1, “USE OF PALIPERIDONE FOR THE TREATMENT OF A MENTAL DISORDER IN A PSYCHIATRIC PATIENT WITH REDUCED HEPATIC FUNCTION” (priority 2005, published 2007)

Assays:
[1] = Plasma protein binding / unbound fraction of paliperidone and its enantiomers; format: in vitro ADME, human
Text: Objectives: The primary objective of this study was to investigate the single-dose pharmacokinetics of immediate-release (IR) paliperidone, after oral administration, in subjects having moderate hepatic impairment (“hepatically-impaired subjects”) compared with subjects having normal hepatic function (“healthy subjects”). The secondary objective was to document the plasma protein binding and disposition of the enantiomers of paliperidone. In addition, the tolerability and safety profile of IR paliperidone was compared between hepatically impaired subjects and healthy subjects. Criteria for Evaluation: Pharmacokinetics: Plasma and urine concentrations of the paliperidone enantiomers (+) R078543 and (−) R078544 were determined using an LC-MS/MS method. Concentrations of paliperidone were calculated as the sum of the enantiomer concentrations. In addition, serum and urine concentrations of creatinine were determined for the calculation of CLCR. The protein binding and unbound fraction was determined for the 2 paliperidone enantiomers. The unbound fraction for paliperidone was calculated.

clinical = experiment: clinical; set-up: species or system human; settings: human, in vivo
Text: Objectives: to investigate the metabolic pathways of paliperidone and excretion of paliperidone and its metabolites in healthy adult male subjects, both CYP2D6 poor and extensive metabolizers, after administration of a single 1-mg oral dose of ^14C-paliperidone. In addition, to evaluate the safety and tolerability of paliperidone, as well as the relationship between genotypes (CYP2D6, CYP3A4, CYP3A5, UGT1A1, and UGT1A6) and exposure to paliperidone and its metabolites.
Methodology: Single-center, single-dose open-label study of the absorption, metabolism, and excretion (AME) of paliperidone in healthy men (3 extensive and 3 poor metabolizers based on CPY2D6 phenotype). […] Each subject received a single oral dose of ^14C-paliperidone with total radioactivity below […] (16 μCi). Blood samples for plasma pharmacokinetic profile were obtained immediately before study drug administration and 0.5, 1, 1.5, 3, 6, 12, 16, 36, 48, 72, 96, 120, 144 and 168 hours postdose. Blood samples were obtained 2, 4, 8, and 24 hours postdose for determination of ^14C in whole blood. Samples for determination of serum creatinine were obtained 2, 4, 8, and 24 hours postdose. Urine was collected immediately prior to drug administration and from 0-4, 4-8, 8-12, 12-16, 16-24, 24-36, 36-48, 48-72, 96-120, 120-144, and 144-168 hours after study drug administration. Fecal samples were colleted per each stool, once before study drug administration and in the period from 0-168 hours after study drug administration. Collections of urine and feces (per 24 hours) were to continue beyond 168 hours, to a maximum of 336 hours (Day 15) for subjects who excrete radioactivity slowly (2 latest 24-hour urine collections each >2% of total radioactive dose) or have <7 feces stool samples over the 0 to 168-hour period. ^14C radioactivity was measured in plasma, urine, and feces. Aliquots of the 0- through 24-hour urine collections were analyzed for cretinine. Plasma concentrations of paliperidone and risperidone were determined by means of a validated LC-MS/MS method. The ^14C-labeled moiety in plasma and urine was determined by liquid scintillation counting. For all plasma samples, the lower limits of quantification for paliperidone and risperidone were 0.100 ng/mL. For all plasma and urine samples the lower limits of quantification for ^14C-palieridone was 72 dpm/mL (=2.0 n g-eq/mL).
Number of Subjects (Planned and Analyzed): Six healthy men, 3 extensive and 3 poor metabolizers based on CYP2D6 phenotype were to participate in the study. Five subjects, 3 extensive and 2 poor metabolizers, received a single dose of ^14C-paliperidone, completed the study (i.e., completed all assessments through Day 8) and were considered valuable for safety (the Safety Analysis Set), as well as for pharmacokinetics.
Test Product, Dose and Mode of Administration Batch No.: Single oral 0.988-mg dose of ^14C-paliperidone, oral solution (aqueous formulation at a final concentration of 0.0984 mg/mL). Batch No.: unlabeled paliperidone oral solution: ZR076477EIA031 (manufacturing date: 23 Apr. 2003, retest date: 23 Oct. 2004): ^14C-paliperidone: 1763 (expiration date: not applicable)
Criteria for Evaluation: Pharmacokinetics: Plasma paliperidone. ^14C radioactivity and metabolite profiles were determined. Plasma Cmax, tmax, AUClast, AUC24, AUC∞, λZ, t1/2term, CL/F of ^14C and paliperidone were estimated by non-compartmental analysis. Based on the individual urine excretion data and on the serum creatinine concentrations, Ae, Ae, % dose, CLR, CLR,24h and CLer and paliperidone and CLGFR, and CLact of paliperidone were estimated. The excretion half-life of ^14C in urine was also estimated based on excretion rate-time profiles.
Statistical Methods: Pharmacokinetics: Plasma concentrations of ^14C and paliperdone as well as estimates for pharmacokinetic parameters were listed and graphically presented, and the excretion analysis of total radioactivity in plasma, urine and feces were summarized. […]

[2] = Safety and tolerability, single oral 1-mg ^14C-paliperidone in healthy men; format: in vivo, human
Protocol: Safety: Evaluation was based on the incidence, type, and severity of all treatment-emergent adverse events, and on change from screening to the end of the study in clinical laboratory results, vital sign measurements, and postural changes in blood pressure and heart rate.
Safety: The number of subjects with adverse events was summarized. Summary statistics were calculated for clinical laboratory values. Other safety data were listed by individual sect. Changes in blood pressure and heart rate measurements were also presented graphically.

[3] = Hepatically-Impaired Subjects (n = 10; paliperidone n = 8)

Molecule | Unbound Fraction ([1]; Healthy Subjects (n = 10)) | Unbound Fraction [1, 3] | AUC∞ (clinical) | deaths, serious adverse events ([2]; 5 healthy men, single oral 1-mg dose) | changes in laboratory test results ([2]; in vivo, po) | overall safety and tolerability ([2]; in vivo, po) | subjects with treatment-emergent adverse events ([2]; in vivo, po)
Cc1nc2n(c(=O)c1CCN1CCC(c3noc4cc(F)ccc34)CC1)CCC[C@H]2O [(+) R078543] | 0.215 ± 0.0469 | 0.306 ± 0.0687 | – | – | – | – | –
^14C-paliperidone | – | – | 175 ng-eq.h/mL | no deaths, no serious adverse events | no clinically relevant changes | safe and well tolerated | Two of the 5 subjects
Cc1nc2n(c(=O)c1CCN1CCC(c3noc4cc(F)ccc34)CC1)CCCC2O (single isomer, unassigned; (-)) [(−) R078544] | 0.385 ± 0.0416 | 0.457 ± 0.0504 | – | – | – | – | –
